Results as given in patent US20250263376A1, “(E)-N-CINNAMOYLAMINOALKANOLS WITH MELANOGENESIS INHIBITORY ACTIVITY” (Uniwersytet Jagiellonski, priority 2024, published 2025).

Tests used:
[1] = Lipophilicity coefficient RM0 by reversed phase thin layer chromatography; assay type: physicochemical; details: RP-18 TLC, methanol/phosphate buffer pH=7.4
Description: Confirmation of the identity and purity of the obtained compounds consisted in the registration and interpretation of 1H NMR and 13C NMR spectra (the spectra were recorded using an ECZR 500 MHZ (JEOL) series FT-NMR spectrophotometer), as well as the registration and interpretation of LC-MS spectra (the spectra were recorded using Acquita UPLC system (Waters) coupled with a Waters TQD mass spectrometer). The melting point was measured using the open capillary method in the IA9300 device (Electrothermal). The lipophilicity coefficient RM0 was determined by reversed phase thin layer chromatography. In the study, aluminum plates 20×20 cm covered with modified silica gel RP-18 F254 (Merck) were used as the solid phase. The mobile phase consisted of solutions of methanol and 100 mM phosphate buffer (pH=7.4), characterized by a variable methanol content ranging from 95 to 65% (v/v). The tested compounds were dissolved in methanol to obtain solutions with a concentration of 1 mg/mL. Then, […] of the solutions prepared in this way were transferred to the starting line on aluminum plates, which were then placed in chromatographic chambers previously saturated with mobile phase vapors for at least 1 hour. All activities, including the development of chromatograms, were carried out at room temperature. After developing the chromatograms to approximately 1-2 cm from the end of the plate, the plates were dried and then the distance traveled by the tested compounds was visualized under UV light (λ=254 nm). The experiment was performed in duplicate for the specified conditions. For all samples, Rf was calculated according to the formula Rf=a/b, where a—the distance traveled by the tested compound, b—the distance traveled by the mobile phase. Then, the RM parameter was calculated for all samples according to the formula RM=log (1/Rf−1), obtaining a linear relationship between the RM values and the methanol concentration in the mobile phase. The log P coefficient was also calculated using the following computer programs: ACD/ChemSketch 2020.1.2 and ChemDraw 20.0.0.41.

[2] = target: T1, tyrosinase from mushroom (Agaricus bisporus, UniProt C7FF04); test: Inhibition of commercial mushroom tyrosinase, substrate L-tyrosine; assay type: biochemical; details: for inhibition at 500 µM: read-out: Tyrosinase inhibition with L-tyrosine [%]
Description: (§1) Studies on the Inhibition of the Activity of Commercial Tyrosinase from Mushroom (Sigma: T3824)
(§2) The following substrates were used for the enzymatic reaction: L-tyrosine and L-3,4-dihyroxyphenylalanine (L-DOPA). Both substrates were used in independent experiments. According to the literature, the use of L-DOPA enables the assessment of tyrosinase diphenolase activity, and L-tyrosine—the tyrosinase monophenolase activity. The determinations were performed in 96-well plates, in each well there was placed: 170 μL or 127.5 μL of 50 mM phosphate buffer (pH=6.8) with tyrosinase (1U/well or 3U/well) and 10 μL of a solution of the tested compound in DMSO (the final concentration in the well was 500 μM, 250 μM or 125 μM). The negative control used 10 u L of pure solvent (DMSO). To initiate the reaction, an appropriate substrate was added: L-tyrosine (62.5 μL of solution in phosphate buffer) or L-DOPA (20 μL of solution in phosphate buffer). After a 25-minute incubation, the absorbance was measured at 475 nm using a microplate reader. The percentage of inhibition of tyrosinase activity was calculated using the formula: [(AC−AT)/[…], where AC—is the absorbance of the negative control, AT—is the absorbance of the sample containing the tested compound.

[3] = system: S. typhimurium TA1537; test: Ames microplate test, TA1537; assay type: cell-based, Salmonella typhimurium
Description: (§3) Bacteria were grown overnight in growth medium.

[4] = system: E. coli WP2; test: Ames microplate test, E. coli WP2;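 also: bacteria exposed to compound for 90 min at 37 °C in 24-well plates, then transferred with indicator medium to 384-well plates and incubated 48 h before yellow well counting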
[5] = system: S. typhimurium TA1535; test: Ames microplate test, TA1535;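 also: bacteria exposed 90 min at 37 °C in exposure medium, then 48 h in indicator medium in 384-well plates, yellow (revertant) wells counted per condition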
Description: The study used the Ames microplate test (Ames MPF™ Penta 2 by Xenometrix, Allschwil, Switzerland). Growth medium, exposure medium, indicator medium, positive controls, hepatic microsomal fraction, NADP, glucose-6-phosphate, Salmonella typhimurium and Escherichia coli strains were components of the purchased experimental kit. Bacteria were grown overnight in growth medium. They were then exposed to the test compound at the appropriate concentration in exposure medium without or with the rat microsomal fraction S9 in 24-well plates for 90 min at 37° C. with shaking. Then, indicator medium was added to the wells and pipetted into 384-well plates, which were incubated for 48 hours at 37° C. without shaking. Results were assessed by counting the wells in which the medium turned yellow for each experimental condition.

[6] = target: T1, tyrosinase from mushroom; test: Inhibition of commercial mushroom tyrosinase, substrate L-DOPA; assay type: biochemical; details: for inhibition at 500 µM: read-out: Tyrosinase inhibition with L-DOPA [%]
Description: as §1, §2

[7] = system: S. typhimurium TA98; test: Ames microplate test, TA98; assay type: cell-based, Salmonella typhimurium
Description: as §3

[8] = system: B16-F10 murine melanoma cell line; test: Cytotoxicity (MTT) in B16-F10 murine melanoma cells; assay type: cell-based; details: 48 h
Description: Cytotoxicity Assessment in the B16-F10 Murine Melanoma Cell Line (ATTC CRL-6745)—Preliminary Safety Assessment for Subsequent Studies
In order to determine safe doses of compounds for testing the inhibition of melanogenesis in a murine melanoma cell line, cytotoxicity tests were performed. Cytotoxicity was determined by the colorimetric method using MTT ([3-(4,5-dimethyl-2-thiazolyl)-2,5-diphenyl-2H-tetrazolium bromide, Sigma M5655). For this purpose, cells were transferred to 96-well plates in an amount of 5000/well. After 24 h of culture in an incubator in F10-Ham medium with 1% FBS, the tested compounds at various concentrations were added to the wells together with fresh medium. DMSO was added to the medium in a negative control. The MTT test was performed after further culture for 48 h. Then the medium was removed and the formed formazan crystals were dissolved in DMSO. The absorbance was measured at 570 nm in a plate reader and the result was compared to the control (DMSO), which was 100%. The percentage of viability was calculated using the formula: [AT/AC*100], where AT is the absorbance of the test sample, AC—absorbance of the control sample.

[9] = system: S. typhimurium TA100; test: Ames microplate test, TA100; assay type: cell-based, Salmonella typhimurium
[10] = system: CHO-K1 cells; test: Cytotoxicity (MTT) in CHO-K1 cells before the micronucleus test; assay type: cell-based, Chinese hamster; details: 24 hours
Description: The assay was performed using a Chinese hamster ovary cell line (CHO-K1) purchased from the American Type Culture Collection (ATCC). The cells were cultured in F-12K medium with the addition of 10% fetal bovine serum (FBS) and antibiotics (streptomycin/penicillin) in an incubator at 37° C. and 5% CO2 concentration). Before the actual micronucleus test, a cytotoxicity assessment was performed to ensure that the actual test was performed only at safe concentrations. For this purpose, cells were transferred to 96-well plates and incubated with the tested compounds for 24 hours. After this time, the MTT test was performed and cell viability was assessed in comparison to the control group (cells cultured with DMSO at the same concentration as in the case of the tested samples).

T1 sequence (C7FF04 2-392): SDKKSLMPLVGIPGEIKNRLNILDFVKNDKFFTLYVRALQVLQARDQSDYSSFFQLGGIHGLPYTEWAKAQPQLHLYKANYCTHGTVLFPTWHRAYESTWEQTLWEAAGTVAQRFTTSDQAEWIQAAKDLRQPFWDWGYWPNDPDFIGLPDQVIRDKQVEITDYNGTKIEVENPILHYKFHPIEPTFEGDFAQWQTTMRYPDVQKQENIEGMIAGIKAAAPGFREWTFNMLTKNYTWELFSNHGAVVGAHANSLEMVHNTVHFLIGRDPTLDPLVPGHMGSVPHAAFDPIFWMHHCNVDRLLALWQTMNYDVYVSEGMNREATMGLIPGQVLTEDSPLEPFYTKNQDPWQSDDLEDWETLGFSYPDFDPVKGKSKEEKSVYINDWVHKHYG
T1 sequence (G1K3P4 entry or part of it, further chain): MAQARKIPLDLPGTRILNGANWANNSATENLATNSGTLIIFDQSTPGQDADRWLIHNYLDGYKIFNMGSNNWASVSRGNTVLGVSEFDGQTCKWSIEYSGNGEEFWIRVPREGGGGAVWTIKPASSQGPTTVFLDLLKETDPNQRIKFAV

Structure (SMILES): CCC(O)CNC(=O)/C=C/c1ccc(Cl)cc1 (stereo not drawn) [Compound A-67, (2E)-3-(4-chlorophenyl)-N-(2-hydroxybutyl)prop-2-enamide]
- RM0 [1]: 2.46
- inhibition at 500 µM [2]: 79.2 ± 1.2%
- Increase in the number of yellow wells compared to the reference level, TA1537 ([3]; 0.5 mM, + S9): 1.00
- Increase in the number of yellow wells compared to the reference level, TA1537 ([3]; 0.5 mM, without S9): 0.00
- Increase in the number of yellow wells compared to the reference level, TA1537 ([3]; 1.0 mM, + S9): 1.33
- Increase in the number of yellow wells compared to the reference level, TA1537 ([3]; 1.0 mM, without S9): 0.18
- Increase in the number of yellow wells compared to the reference level, TA1537 ([3]; 2.0 mM, + S9): 0.00
- Increase in the number of yellow wells compared to the reference level, TA1537 ([3]; 2.0 mM, without S9): 0.82
- Increase in the number of yellow wells compared to the reference level, E. coli WP2 ([4]; 0.5 mM, + S9): 0.83
- Increase in the number of yellow wells compared to the reference level, E. coli WP2 ([4]; 0.5 mM, without S9): 0.50
- Increase in the number of yellow wells compared to the reference level, E. coli WP2 ([4]; 1.0 mM, + S9): 0.42
- Increase in the number of yellow wells compared to the reference level, E. coli WP2 ([4]; 1.0 mM, without S9): 1.00
- Increase in the number of yellow wells compared to the reference level, E. coli WP2 ([4]; 2.0 mM, + S9): 1.42
- Increase in the number of yellow wells compared to the reference level, E. coli WP2 ([4]; 2.0 mM, without S9): 0.83
- Increase in the number of yellow wells compared to the reference level, TA1535 ([5]; 0.5 mM, + S9): 0.27
- Increase in the number of yellow wells compared to the reference level, TA1535 ([5]; 0.5 mM, without S9): 0.30
- Increase in the number of yellow wells compared to the reference level, TA1535 ([5]; 1.0 mM, + S9): 0.54
- Increase in the number of yellow wells compared to the reference level, TA1535 ([5]; 1.0 mM, without S9): 0.45
- Increase in the number of yellow wells compared to the reference level, TA1535 ([5]; 2.0 mM, + S9): 0.13
- Increase in the number of yellow wells compared to the reference level, TA1535 ([5]; 2.0 mM, without S9): 1.04
- inhibition at 500 µM [6]: 60.8 ± 1.99%
- Increase in the number of yellow wells compared to the reference level, TA98 ([7]; 0.5 mM, + S9): 0.31
- Increase in the number of yellow wells compared to the reference level, TA98 ([7]; 0.5 mM, without S9): 0.27
- Increase in the number of yellow wells compared to the reference level, TA98 ([7]; 1.0 mM, + S9): 0.94
- Increase in the number of yellow wells compared to the reference level, TA98 ([7]; 1.0 mM, without S9): 1.07
- Increase in the number of yellow wells compared to the reference level, TA98 ([7]; 2.0 mM, + S9): 1.04
- Increase in the number of yellow wells compared to the reference level, TA98 ([7]; 2.0 mM, without S9): 1.07
- Cytotoxicity study in B16F10 cells, % viability ([8]; 150 μM): 73.6%
- Cytotoxicity study in B16F10 cells, % viability ([8]; 200 μM): 87.8%
- Cytotoxicity study in B16F10 cells, % viability ([8]; 250 μM): 84.4%
- Increase in the number of yellow wells compared to the reference level, TA100 ([9]; 0.5 mM, + S9): 0.78
- Increase in the number of yellow wells compared to the reference level, TA100 ([9]; 0.5 mM, without S9): 1.53
- Increase in the number of yellow wells compared to the reference level, TA100 ([9]; 1.0 mM, + S9): 0.64
- Increase in the number of yellow wells compared to the reference level, TA100 ([9]; 1.0 mM, without S9): 0.93
- Increase in the number of yellow wells compared to the reference level, TA100 ([9]; 2.0 mM, + S9): 0.31
- Increase in the number of yellow wells compared to the reference level, TA100 ([9]; 2.0 mM, without S9): 0.80
- % Viability [mean], CHO-K1 ([10]; 100 μM): 96.0%
- % Viability [mean], CHO-K1 ([10]; 150 μM): 90.3%
- % Viability [mean], CHO-K1 ([10]; 200 μM): 84.0%

Structure (SMILES): O=C(/C=C/c1ccccc1)NCCCCO [Compound A-43, (2E)-N-(4-hydroxybutyl)-3-phenylprop-2-enamide]
- RM0 [1]: 1.60
- inhibition at 500 µM [2]: 35.5 ± 1.37%
- inhibition at 500 µM [6]: 34.5 ± 4.18%
- Cytotoxicity study in B16F10 cells, % viability ([8]; 150 μM): 108.9%
- Cytotoxicity study in B16F10 cells, % viability ([8]; 200 μM): 105.7%
- Cytotoxicity study in B16F10 cells, % viability ([8]; 250 μM): 103.2%

Structure (SMILES): O=C(/C=C/c1ccc(Cl)cc1Cl)NCCCO [H-296/20, (2E)-3-(2,4-dichlorophenyl)-N-(3-hydroxypropyl)prop-2-enamide]
- RM0 [1]: 2.11
- inhibition at 500 µM [2]: 17.9 ± 7.36%
- inhibition at 500 µM [6]: 18.6 ± 1.67%
- Cytotoxicity study in B16F10 cells, % viability ([8]; 150 μM): 67.0%
- Cytotoxicity study in B16F10 cells, % viability ([8]; 200 μM): 57.0%
- Cytotoxicity study in B16F10 cells, % viability ([8]; 250 μM): 38.3%

Structure (SMILES): CCC(CO)NC(=O)/C=C/c1ccc(C)cc1 (stereo not drawn) [H-409/21, (2E)-N-(1-hydroxybutan-2-yl)-3-(4-methylphenyl)prop-2-enamide]
- RM0 [1]: 2.49
- inhibition at 500 µM [2]: 15.3 ± 8.27%
- inhibition at 500 µM [6]: 21.8 ± 2.31%
- Cytotoxicity study in B16F10 cells, % viability ([8]; 150 μM): 83.2%
- Cytotoxicity study in B16F10 cells, % viability ([8]; 200 μM): 95.3%
- Cytotoxicity study in B16F10 cells, % viability ([8]; 250 μM): 103.4%

Structure (SMILES): O=C(/C=C/c1ccc(Cl)cc1)NCCCCCCO [H-426/21, (2E)-3-(4-chlorophenyl)-N-(6-hydroxyhexyl)prop-2-enamide]
- RM0 [1]: 3.02
- inhibition at 125 µM ([2]; 125 μM): 39.9 ± 3.21%
- inhibition at 125 µM ([6]; 125 μM): 30.7 ± 1.82%
- Cytotoxicity study in B16F10 cells, % viability ([8]; 150 μM): 30.3%
- Cytotoxicity study in B16F10 cells, % viability ([8]; 200 μM): 28.2%
- Cytotoxicity study in B16F10 cells, % viability ([8]; 250 μM): 28.3%

Structure (SMILES): O=C(/C=C/c1ccc(Cl)cc1)NCCCCO [H-331/21, (2E)-3-(4-chlorophenyl)-N-(4-hydroxybutyl)prop-2-enamide]
- RM0 [1]: 2.14
- inhibition at 500 µM [2]: 82.5 ± 0.87%
- inhibition at 500 µM [6]: 64.31 ± 0.21%
- Cytotoxicity study in B16F10 cells, % viability ([8]; 12.5 μM): 49.0%
- Cytotoxicity study in B16F10 cells, % viability ([8]; 25 μM): 47.8%
- Cytotoxicity study in B16F10 cells, % viability ([8]; 50 μM): 54.2%
- Cytotoxicity study in B16F10 cells, % viability ([8]; 150 μM): 32.7%
- Cytotoxicity study in B16F10 cells, % viability ([8]; 200 μM): 51.9%
- Cytotoxicity study in B16F10 cells, % viability ([8]; 250 μM): 52.7%

Structure (SMILES): O=C(/C=C/c1ccc(Cl)cc1Cl)NCCCCO [H-298/20, (2E)-3-(2,4-dichlorophenyl)-N-(4-hydroxybutyl)prop-2-enamide]
- RM0 [1]: 2.78
- inhibition at 500 µM [2]: 20 ± 2.96%
- inhibition at 500 µM [6]: 11.2 ± 2.78%
- Cytotoxicity study in B16F10 cells, % viability ([8]; 150 μM): 46.5%
- Cytotoxicity study in B16F10 cells, % viability ([8]; 200 μM): 40.6%
- Cytotoxicity study in B16F10 cells, % viability ([8]; 250 μM): 37.4%
